The test deals with BJ-hTERT cells. As to the kind of experiment: cellular GMP levels after inhibitor treatment. It counts as cell-based, human. To be noted: 20 μM inhibitor, 1 hour; mean ± SEM; p<0.001. As for the experimental part:
For assaying PDE5 inhibitor effects on GMP levels in a cell line, BJ-hTERT cells were plated in 6-well plates (Corning) in the media described above. When cells were 80% confluent, fresh, pre-warmed media with DMSO (untreated controls) or 20 μM sildenafil, 3, or 7 was added and incubated for 1 hour. Maximum DMSO concentration in all samples was 0.2% of the total well volume. Cells were washed once with cold 0.9% NaCl. 800 μL of 80:20 methanol:water spiked with 500 nM isotopically labeled amino acids as internal standards was added while cells were on dry ice. Cells were detached with a cell scraper. Extracts were vortexed for 10 minutes and centrifuged at maximum speed at 4 °C to remove debris. Extracts were dried down in a vacuum dryer and stored at -80 °C. An additional sample was reserved for visual inspection of cell health by confocal light microscopy and for cell counting with a hemocytometer. Three independent assays were conducted in total, with 1–2 replicates per assay. To analyze GMP levels, samples were reconstituted in 50 μL LC-MS grade water and analyzed by HPLC-UV-MS as described in the general procedures and for enzyme inhibition and kinetics assays. The amino acid standards were analyzed in full scan positive mode with mass windows m/z 50–800. GMP peak areas were normalized to the peak area of the internal standard ^13C4, ^15N-threonine or ^13C6, ^15N3-histidine to account for variations in extraction or resuspension volume. The peak areas were then normalized to the average GMP peak area in undrugged controls and multiplied by 100 to obtain the percent GMP.

The structures appear in SMILES notation.

Regarding `COc1ccc(-c2oc3c(CC=C(C)C)c(O)cc(O)c3c(=O)c2OCCCO)cc1` [Compound 7, 3-O-(3-Hydroxypropyl)-Icaritin], the “cellular GMP concentration, % of the GMP concentration in untreated control cells” value stood at 13 ± 2%.

Values taken from PMC6754136 (PLoS ONE, 2019).
